These results are taken from patent publication US5684017A, “Benzenesulfonylimine derivatives as inhibitors of IL-1 action” (Merrell Pharmaceuticals Inc., priority 1996, dated 1997).

A short description of experiment [1]: Interleukin-1-Beta-Induced Tumor Necrosis Factor Alpha Release by Human Macrophages. It is filed as cell-based. The note with it: Macrophage; recombinant human IL-1β 20 ng/mL; compound 1 h before stimulation; supernatants after 24 h, ELISA; read-out: IC50 (IL-1β-induced TNFα release). As to the method: (§1) The compounds of Formula I inhibit IL-1 action. One mechanism for inhibiting IL-1 action is to inhibit IL-1 production. Inhibition of IL-1 production was tested using lipopolysaccharide (LPS) stimulated macrophages. Inhibition of IL-1 induced production of cytokines was tested by measuring the inhibition of TNFα (tumor necrosis factor alpha) synthesis from IL-1 stimulated macrophages. The protocols for these test procedures are described below.
Interleukin-1-Beta-Induced Tumor Necrosis Factor Alpha Release by Human Macrophages
To determine the inhibitory concentrations for the test compounds against interleukin-1 beta (IL-1β)-induced tumor necrosis factor alpha (TNFα) release by human peripheral blood monocyte-derived macrophages. It should be understood that this is a test of the ability of the test compounds to modulate, i.e. inhibit, the activity of IL-1β by measuring the inhibition of IL-1β induced release of TNFα.
Source Human Peripheral Blood Monocyte-Derived Macrophages:
Venous blood is collected form healthy volunteers in 10 mM sodium citrate (2 mL sterile sodium citrate for 40 mL blood). Mononuclear cells are isolated with the Leucoprep tubes (Becton Dickinson, product number 2752 or 2751) spun at 1500 g for fifteen minutes. Aliquots of 3×10^6 mononuclear cells are added to 24-well tissue culture plates (Corning) in RPMI-1640. After 1 hour incubation at 37° C., non-adherent cells are gently rinsed off. The adherent cells (macrophages) are given back fresh medium RPMI-1640, 1 mL/well.
Macrophage monolayer cultures are pretreated with compounds one hour prior to IL-1β (20 ng/mL, recombinant human IL-1β) stimulation. Compounds dissolved in 95% ethanol or DMSO would require additional monolayer cultures treated with 10 or 2.5 μl 95% ethanol or DMSO, respectively. Culture supernatants are collected 24 hours later and are tested for TNF-α using a commercial ELISA kit (Cistron).
The TNF-α concentration in the culture supernatant is calculated by a standard curve generated from a series of known concentrations. Potency of compound is reported in IC50 (UM).
On the technique in general: An ELISA detects its analyte on a solid surface through an enzyme-linked reagent.

Experiment [2] has as its system interleukin-1 beta (IL-1β) release (production) by human peripheral blood monocyte-derived macrophages. Kind of experiment: Endotoxin-Induced Interleukin-1 Beta Release by Human Macrophages. The note with it: Macrophage, endotoxin 20 ng/mL (Salmonella typhimurium Re-mutant), compound 1 h before stimulation, supernatants after 24 h, ELISA. The format is cell-based. As to the method: as §1
Endotoxin-Induced Interleukin-1 Beta Release by Human Macrophages
The objective of this test is to determine the inhibitory concentrations for the test compounds against endotoxin-induced interleukin-1 beta (IL-1β) release (production) by human peripheral blood monocyte-derived macrophages.
The source of the human peripheral blood monocyte-derived macrophages is as follows:
Venous blood is collected from healthy volunteers in 10 mM sodium citrate (2 mL sterile sodium citrate for 40 mL blood). Mononuclear cells are isolated with the Leucoprep tubes (Becton Dickenson, product number 2752 or 2751) spun at 1500 g for 15 minutes. Aliquots of 3×10^6 mononuclear cells are added to 24-well tissue culture plates (Corning) in RPMI-1640. After one hour incubation at 37° C., non-adherent cells are gently rinsed off. […]
The IL-1β concentration in the culture supernatant is calculated by a standard curve generated from a series of known concentrations. […]

For experiment [3] the following is noted: mammal having an arthritic condition; U.S. Pat. No. 5,122,534; cited from earlier work.
The next experiment relates to IL-1 production. The following applies: cited from earlier work.

Consider `O=C(c1ccccc1)c1cc(=NS(=O)(=O)c2ccccc2)c2ccccc2o1` [2-Benzoyl-4-benzenesulfonylimino-4H-chromene], for which the IC50 in experiment [1] is 1.3 µM.

On to `CC(=O)c1cc(=NS(=O)(=O)c2ccccc2)c2c(Cl)cc(Cl)cc2[nH]1` [5,7-Dichloro-2-acetyl-4-[benzenesulfonylimino]-1,4-dihydroquinoline], for which the IC50 stood at 4 µM in experiment [2] and 8 µM in experiment [1].

For `O=C(c1ccccc1)c1cc(=NS(=O)(=O)c2ccccc2)c2c(Cl)cc(Cl)cc2[nH]1` [5,7-Dichloro-2-benzoyl-4-[benzenesulfonylimino]-1,4-dihydroquinoline], the figures for the IC50 in experiment [2] and in experiment [1] were 2 µM and 3 µM, respectively.

For the compound `NC(=O)N1C(=O)/C(=C(\O)c2cccs2)c2cc(Cl)ccc21` [Tenidap], in experiment [3], the “serum LDL cholesterol” value is on record as “reduces”, the serum triglycerides entry was “reduces” and the “total level of serum cholesterol” value is given as “reduces”. For the same compound, the “block IL-1 production” value with IL-1 production is given as “known to block IL-1 production”.

What is called IC50 is the concentration that gives 50% inhibition.
